US20070128685A1, “Methods and compositions for cell culture” (priority 2005, published 2007)

Experiments:
[1] = system: Human dermal adult and newborn skin fibroblasts; assay: Proliferation of human dermal fibroblasts in media supplemented with collagenase; format: cell-based; conditions: primary and secondary culture
Protocol: Human dermal adult and newborn skin fibroblasts were cultured in a SFM and serum-containing media (DMEM 5% FBS). Collagenase ([…]) was added to the DMEM serum free media (SFM) and tested on primary and secondary culture of human adult and newborn fibroblasts. In both cases (SFM and DMEM 5%) Collagenase increase cell proliferation up to 2-2.5 fold over the controls.

[2] = system: Normal human adult chondrocytes and normal rodent chondrocytes; assay: Culture of chondrocytes in supplemented DMEM serum free media; format: cell-based; conditions: DMEM SFM, Collagenase 5 μg/ml; after 4, 6, and 9 passages
Protocol: Currently, there is not any SFM commercially available for chondrocytes. Using the serum-containing media available, the life-span of the chondrocytes in culture is very limited (up to 3 to 4 passages, between 10-15 doublings times). Thus, the present example illustrates the use of collagenase and forskolin to allow the used of SFM with chondrocytes.
Normal human adult chondrocytes and normal rodent chondrocytes were cultured in a SFM. Collagenase (5 μg/ml) was added into the DMEM serum free media (SFM) and tested on said primary and secondary chondrocytes cultures.

Collagenase
increase of cell proliferation over the controls ([1]; DMEM serum free media (SFM), Collagenase 1 μg/nl): 2-2.5 fold | increase of cell proliferation over the controls ([1]; serum-containing media (DMEM 5% FBS)): 2-2.5 fold | growth of chondrocytes [2]: robust growth
